Values of other authors, collected in patent US11395812B2, “Docetaxel albumin nanoparticle pharmaceutical composition, preparation method therefor and use thereof” (SICHUAN KELUN PHARMACEUTICAL RESEARCH INSTITUTE CO. LTD., priority 2015, dated 2022).

Target: T1, recombinant human cytochrome P4501B1 (hCYP1B1) (Homo sapiens, UniProt Q16678)
T1 sequence (Q16678 1-543): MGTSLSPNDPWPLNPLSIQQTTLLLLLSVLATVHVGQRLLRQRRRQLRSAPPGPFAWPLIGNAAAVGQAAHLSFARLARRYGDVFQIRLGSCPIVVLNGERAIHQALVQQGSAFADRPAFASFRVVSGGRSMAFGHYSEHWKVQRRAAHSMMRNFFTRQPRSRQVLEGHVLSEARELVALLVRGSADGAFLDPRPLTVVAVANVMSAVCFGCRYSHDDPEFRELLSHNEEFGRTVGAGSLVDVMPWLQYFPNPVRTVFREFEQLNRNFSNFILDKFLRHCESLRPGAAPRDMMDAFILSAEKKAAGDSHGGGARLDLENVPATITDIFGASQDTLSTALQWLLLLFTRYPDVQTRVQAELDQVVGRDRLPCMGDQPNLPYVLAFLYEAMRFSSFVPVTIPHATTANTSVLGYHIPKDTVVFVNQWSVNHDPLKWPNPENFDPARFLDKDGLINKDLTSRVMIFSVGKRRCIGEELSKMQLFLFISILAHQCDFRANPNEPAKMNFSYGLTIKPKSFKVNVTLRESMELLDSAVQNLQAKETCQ
Settings: in vitro test

CC(=O)O[C@@]12CO[C@@H]1C[C@@H](O)[C@@]1(C)C(=O)[C@H](O)C3=C(C)[C@@H](OC(=O)[C@H](O)[C@@H](NC(=O)OC(C)(C)C)c4ccccc4)C[C@@](O)([C@@H](OC(=O)c4ccccc4)[C@H]21)C3(C)C [7-epi-docetaxel]
increase of the activity of hCYP1B1: more than 7 times
